Measurements taken from patent US10927117B2 (BEIGENE SWITZERLAND GMBH, priority 2016, dated 2021).
pIC50: −log10 of the molar value.

Key:
[1] = system: advanced B cell malignancies; experiment: Phase 1 trial in patients with advanced B cell malignancies (cutoff Oct. 19, 2015); type: in vivo, human
From the text: A total of 39 patients, including all 25 patients from the initial dose-escalation component and 14 patients from the ongoing dose-expansion component were enrolled.
As of Oct. 19, 2015, the cutoff date for data analysis, 29 objective responses have been observed, including 3 complete responses (CRs), 1 very good partial response (VGPR), and 25 partial responses (PRs). 31 of the 39 patients remain on study treatment, free of progression, including all patients to date who have achieved an objective response.

[2] = system: systemic REC-1 MCL engrafts; experiment: Efficacy study in systemic REC-1 xenograft model; type: in vivo, NOD/SCID mice; conditions: different dose levels BID p.o., 71 days
Experimental: Animals were pre-treated with cyclophosphamide (prepared in saline, 150 mpk i.p.) and disulfiram (prepared in 0.8% TW-80 in saline, 125 mpk p.o., one hour after each dose of cyclophosphamide) once daily for two days. Animals were then inoculated with REC-1 cells 24 hours after the second dose of cyclophosphamide. On the day of implantation, cell culture medium was replaced with fresh medium. Four hours later, media was removed and cells were collected as described above. Cells were re-suspended in cold (4° C.) PBS to give a final concentration of 1×10^8 cells/ml. Resuspended cells were placed on ice prior to implantation. Each animal was injected intravenously via tail vein with 1×10^7 cells in […] of cell suspension.
For in vivo efficacy studies, starting from day 8 after cell inoculation, animals were randomly assigned into desired number of groups with 10 mice per group. […] Body weight was assessed immediately before dosing and volume dosed was adjusted accordingly. Body weight was recorded twice weekly (changed to three times per week from day 33). […] In the case of severe toxic effect, such as loss of movement, mice were euthanized and scored as death.
For Data Analysis: Survival analysis was performed by Kaplan-Meier method. […] For each group, median survival time (MST), range of survival time (RST) with 95% confidence interval and increase in life-span (ILS) were calculated. […]

[3] = system: Rec-1 cells (MCL cell line); experiment: Tumor cell proliferation, CellTiter-Glo, Rec-1; type: cell-based; conditions: Homo sapiens, Rec1, 144 h, Rec-1 cell line, 6-day exposure, mean of 3 independent assays, read-out: Potency IC50
Experimental: 3 MCL cell lines (Rec-1, Mino and JEKO-1) and an ABC type diffuse large B-cell lymphoma cell line (TMD8) were used in this study. Cell lines were maintained in RPMI-1640 supplemented with 10% fetal bovine serum/FBS (Thermo Scientific); 100 units/ml penicillin (Gibco) and 0.1 mg/ml streptomycin (Gibco) and kept at 37° C. in a humidified atmosphere of 5% CO2 in air. Cell lines were reinstated from frozen stocks that were laid down within 30 passages from the original cells purchased.
The growth-inhibitory activity of compounds in Rec-1, Mino, JEKO-1 and TMD-8 cells was determined using CellTiter-Glo luminescent cell viability assay (Promega). The number of cells seeded per well of a 96-well plate was optimized for each cell line to ensure logarithmic growth over 6 days treatment period. Cells were treated in triplicate with a 10-point dilution series. […] Mixture was mixed on an orbital shaker for 2 minutes to allow cell lysis, followed by 10 minutes incubation at room temperature to allow development and stabilization of luminescent signal, which corresponded to quantity of ATP and thus the quantity of metabolically active cells. Luminescent signal was measured using PHERAstar FS reader (BMG Labtech). IC50 values for cell viability were determined with GraphPad Prism software and were the mean of 3 independent assays.

[4] = Burkitt's-like Lymphoma patients
[5] = Burkitt's-like Lymphoma patients, number of patients/total
[6] = Chronic Lymphocytic Leukemia patients
[7] = Chronic Lymphocytic Leukemia patients, number of patients/total
[8] = DLBCL patients, number of patients/total
[9] = Hairy Cell Leukemia patients, number of patients/total
[10] = Indolent NHL patients, number of patients/total
[11] = Mantle Cell Lymphoma patients, number of patients/total
[12] = Waldenström's Macroglobulinemia patients
[13] = Waldenström's Macroglobulinemia patients, number of patients/total

For `C=CC(=O)N1CCC([C@@H]2CCNc3c(C(N)=O)c(-c4ccc(Oc5ccccc5)cc4)nn32)CC1` [Compound 1, (S)-7-(1-acryloylpiperidin-4-yl)-2-(4-phenoxyphenyl)-4,5,6,7-tetra-hydropyrazolo[1,5-a]pyrimidine-3-carboxamide], the patients who discontinued ([1]; 6 disease progression, 2 adverse events related to underlying malignancy) was 8, the “exacerbation or new event of atrial fibrillation/flutter (AF)” value ([1]; 6 patients with baseline history of AF) was “no exacerbation or new event of AF” and the “complete responses (CRs)” value ([1]; 39 patients enrolled) was 3. For the same molecule, the “partial responses (PRs)” value ([1]; 39 patients enrolled) was 25, the “very good partial response (VGPR)” value ([1]; 39 patients enrolled) was 1 and the objective responses ([1]; 39 patients enrolled, cutoff Oct. 19, 2015) was 29. For the same molecule, the “Best Response CR” value [1, 4] was “(0%)”, the “Best Response PD” value [1, 4] was “(100%)” and the “Best Response PR” value [1, 4] was “(0%)”. For the same molecule, the “Best Response SD” value [1, 4] was “(0%)”, the “ORR (CR + PR)” value [1, 4] was “(0%)” and the “Best Response CR” value [1, 5] was 0/1. The “Best Response PD” value [1, 5] was 1/1, the “Best Response PR” value [1, 5] was 0/1 and the “Best Response SD” value [1, 5] was 0/1. For the same molecule, the “ORR (CR + PR)” value [1, 5] was 0/1, the “Best Response PD” value [1, 6] was “(0%)” and the “Best Response SD” value [1, 6] was “(7%)”. The “ORR (CR + PR)” value [1, 6] was “(93%)”, the “Best Response CR” value ([1]; Chronic Lymphocytic Leukemia patients, cutoff Oct. 19, 2015) was “(0%)” and the “Best Response PR” value ([1]; Chronic Lymphocytic Leukemia patients, includes five patients with lymphocytosis at latest assessment) was “(93%)”. The “Best Response PD” value ([1]; Chronic Lymphocytic Leukemia patients, number of patients) was 0, the “Best Response SD” value [1, 7] was 1/14 and the “ORR (CR + PR)” value [1, 7] was 13/14. The “Best Response CR” value ([1]; Chronic Lymphocytic Leukemia patients, number of patients/total, cutoff Oct. 19, 2015) was 0/14, the “Best Response PR” value ([1]; Chronic Lymphocytic Leukemia patients, number of patients/total, includes five patients with lymphocytosis at latest assessment) was 13/14^1 and the “Best Response CR” value ([1]; DLBCL patients) was “(25%)”. The “Best Response PD” value ([1]; DLBCL patients) was “(75%)”, the “Best Response PR” value ([1]; DLBCL patients) was “(0%)” and the “Best Response SD” value ([1]; DLBCL patients) was “(0%)”. For the same molecule, the “ORR (CR + PR)” value ([1]; DLBCL patients) was “(25%)”, the “Best Response CR” value [1, 8] was 1/4 and the “Best Response PD” value [1, 8] was 3/4. The “Best Response PR” value [1, 8] was 0/4, the “Best Response SD” value [1, 8] was 0/4 and the “ORR (CR + PR)” value [1, 8] was 1/4. The “Best Response CR” value ([1]; Hairy Cell Leukemia patients) was “(0%)”, the “Best Response PD” value ([1]; Hairy Cell Leukemia patients) was “(0%)” and the “Best Response PR” value ([1]; Hairy Cell Leukemia patients) was “(100%)”. For the same molecule, the “Best Response SD” value ([1]; Hairy Cell Leukemia patients) was “(0%)”, the “ORR (CR + PR)” value ([1]; Hairy Cell Leukemia patients) was “(100%)” and the “Best Response CR” value [1, 9] was 0/1. The “Best Response PD” value [1, 9] was 0/1, the “Best Response PR” value [1, 9] was 1/1 and the “Best Response SD” value [1, 9] was 0/1. For the same molecule, the “ORR (CR + PR)” value [1, 9] was 1/1, the “Best Response CR” value ([1]; Indolent NHL patients) was “(0%)” and the “Best Response PD” value ([1]; Indolent NHL patients) was “(0%)”. The “Best Response PR” value ([1]; Indolent NHL patients) was “(0%)”, the “Best Response SD” value ([1]; Indolent NHL patients) was “(100%)” and the “ORR (CR + PR)” value ([1]; Indolent NHL patients) was “(0%)”. For the same molecule, the “Best Response CR” value [1, 10] was 0/2, the “Best Response PD” value [1, 10] was 0/2 and the “Best Response PR” value [1, 10] was 0/2. For the same molecule, the “Best Response SD” value [1, 10] was 2/2, the “ORR (CR + PR)” value [1, 10] was 0/2 and the “Best Response CR” value ([1]; Mantle Cell Lymphoma patients) was “(20%)”. The “Best Response PD” value ([1]; Mantle Cell Lymphoma patients) was “(10%)”, the “Best Response PR” value ([1]; Mantle Cell Lymphoma patients) was “(60%)” and the “Best Response SD” value ([1]; Mantle Cell Lymphoma patients) was “(10%)”. The “ORR (CR + PR)” value ([1]; Mantle Cell Lymphoma patients) was “(80%)”, the “Best Response CR” value [1, 11] was 2/10 and the “Best Response PD” value [1, 11] was 1/10. For the same molecule, the “Best Response PR” value [1, 11] was 6/10, the “Best Response SD” value [1, 11] was 1/10 and the “ORR (CR + PR)” value [1, 11] was 8/10. The “Best Response CR” value [1, 12] was “(0%)”, the “Best Response PD” value [1, 12] was “(14%)” and the “Best Response SD” value [1, 12] was “(0%)”. The “ORR (CR + PR)” value [1, 12] was “(86%)”, the “Best Response PR” value ([1]; Waldenström's Macroglobulinemia patients, includes one patient with VGPR) was “(86%)” and the “Best Response CR” value [1, 13] was 0/7. For the same molecule, the “Best Response PD” value [1, 13] was 1/7, the “Best Response SD” value [1, 13] was 0/7 and the “ORR (CR + PR)” value [1, 13] was 6/7. The “Best Response PR” value ([1]; Waldenström's Macroglobulinemia patients, number of patients/total, includes one patient with VGPR) was 6/7^2, the “≥Grade 3 AEs assessed as possibly drug-related” value ([1]; all self-limited neutropenia) was 4 and the “patients who died during study” value ([1]; disease progression or its complications) was 3. The “drug-related serious adverse events (SAEs)” value ([1]; human, in vivo) was “no drug-related serious adverse events”, the “number of ≥Grade 3 AEs” value ([1]; human, in vivo) was 19 and the major hemorrhage ([1]; not considered drug-related) was “one case”. For the same molecule, the “patients remaining on study treatment, free of progression” value ([1]; of the 39 patients) was 31.

With `C=CC(=O)N1CCC([C@@H]2CCNc3c(C(N)=O)c(-c4ccc(Oc5ccccc5)cc4)nn32)CC1` [Crystalline Form A, (S)-7-(1-acryloylpiperidin-4-yl)-2-(4-phenoxyphenyl)-4,5,6,7-tetra-hydropyrazolo[1,5-a]pyrimidine-3-carboxamide] the “anti-tumor activity (overall survival)” value [2] was “dose-dependent anti-tumor activity” and the pIC50 [3] was 9.44.
